Test system: MCT-induced pulmonary arterial hypertension in rat
Test: Rat monocrotaline model of pulmonary arterial hypertension
Type: in vivo
Conditions: male Wistar rats, MCT 60 mg/kg s.c.; test compound 30 mg/kg oral gavage twice a day for 21 days; heart weights Day 22
Description: Animals: Male Wistar rats (100-150 g at start of study) (Charles River Laboratories, Wilmington, Mass.) were housed two per cage and maintained in a humidity—(40-60%) and temperature—(68-72° F.) controlled facility on a 12 hr:12 hr light/dark cycle (lights on at 6:30 am) with free access to food (Harlan Teklad, Orange Calif., Rodent Diet 8604) and water. Rats were allowed one week of habituation to the animal facility before testing.
Rat monocrotaline model: The rat monocrotaline (MCT) model is a standard and well-accepted model of pulmonary arterial hypertension. MCT induces acute pulmonary endothelial damage associated with pulmonary vascular inflammation. […]
Rats were randomly given a single subcutaneous injection of either 60 mg/kg MCT (Sigma, St. Louis, Mo.) or 0.9% saline (sham) and assigned to receive oral administration of 20% hydroxypropyl beta-cyclodextrin (vehicle) or test compound (30 mg/kg; FIGS. 1 and 2). […] Heart chamber weights were measured on Day 22. […] The ratio of right ventricular (RV) weight to left ventricle plus septum (LV+S) weight (this ratio is indicated as “RV/(LV+S)” in FIGS. 1 and 2) was calculated as an index of the hypertrophic response to the induced pulmonary arterial hypertension and, as such, as an index of a test compound's therapeutic efficacy for pulmonary arterial hypertension.

SMILES	hypertrophic response to the induced pulmonary arterial hypertension, RV/(LV+S)
COc1cccc(-c2c(-c3ccccc3)nn(C[C@H]3CC[C@@H](COCC(=O)O)CC3)c2C)c1 [Compound 14, 2-(((1s,4s)-4-((4-(3-Methoxyphenyl)-5-methyl-3-phenyl-1H-pyrazol-1-yl)methyl)cyclohexyl)methoxy)acetic Acid]	inhibited the hypertrophic response
COc1cccc(-c2c(-c3ccccc3)nn(C[C@H]3CC[C@@H](COCC(=O)O)CC3)c2SC)c1 [Compound 31, 2-(((1s,4s)-4-((4-(3-Methoxyphenyl)-5-(methylthio)-3-phenyl-1H-pyrazol-1-yl)methyl)cyclohexyl)methoxy)acetic Acid]	inhibited the hypertrophic response
